Experiments:
Solubility in PBS = assay type: physicochemical; conditions: Yes/NO
[1] = test system: HIV-1JR-FL EnvΔCT expressed at the surface of HOS cells; test: Cell-based ELISA (CBE), 17b readout; conditions: MCG analogs 50 μM; BNM-III-170 5 μM; 2G12 and DMSO normalized
Description: Detection of trimeric HIV-1 Env at the surface of HOS cells was performed by cell-based ELISA, as described in Desormeaux, “The highly conserved layer-3 component of the HIV-1 gp120 inner domain is critical for CD4-required conformational transitions,” J. Virol. 87:2549-2562; Alsahafi, “Effects of the I559P gp41 change on the conformation and function of the human immunodeficiency virus (HIV-1) membrane envelope glycoprotein trimer,” 2015, PLoS One 10:e0122111; and Veillette, “Conformational evaluation of HIV-1 trimeric envelope glycoproteins using a cell-based ELISA assay,” 2014, J. Vis. Exp., 91:51995. To enhance cell-surface expression of HIV-1 EnvRF a stop codon was introduced to replace the codon for Gly 711, truncating the cytoplasmic tail (ACT). Briefly, HOS cells were seeded in T-75 flasks (3×10^6 cells per flask) and transfected the next day with 22.5 μg of Env-expressing plasmids (wild-type and mutants S375W, S375T, H66A, A582T/L587A, etc) using the standard polyethylenimine (PEI, Polyscience Inc, PA, USA) transfection method. Twenty-four hours after transfection, cells were plated in 384-wells plates (2×10^4 cells per well). One day later, cells were washed twice with blocking buffer (10 mg/mL non-fat dry milk, 1.8 mM CaCl2), 1 mM MgCl2, 25 mM Tris, pH 7.5 and 140 mM NaCl) and then incubated for 30 minutes at room temperature with different concentrations of MCG analogs or equivalent volume of vehicle (DMSO). Cells were then incubated for an additional 1 h at room temperature with anti-HIV-1 Env monoclonal antibodies recognizing CD4-induced gp120 epitopes (17b, A32), CD4-binding site gp120 epitopes (VRC03, VRC01, F105, and b12), gp120 V3 glycans (19b, PGT126, PGT122, and 10.1074), gp120 outer domain (2G12), and gp120-gp41 interface (PGT151 and VRC34) epitopes. All ligands were diluted in blocking buffer. A horseradish peroxidase-conjugated antibody specific for the Fc region of human or mouse IgG (Pierce) was then incubated with the samples for 45 minutes at room temperature. For all conditions, cells were washed 5 times with blocking buffer and 5 times with washing buffer (1.8 mM CaCl2), 1 mM MgCl2, 25 mM Tris, pH 7.5 and 140 mM NaCl). HRP enzyme activity was determined after the addition of 20 μl per well of a 1:1 mix of Western Lightning oxidizing and luminol reagents (Perkin Elmer Life Sciences). Light emission was measured with an LB 941 TriStar luminometer (Berthold Technologies) and analysis with Graph Pad software.
The data of Table 2 is given as the fold over BNM-III-170 (5 μM) of Cell-Based ELISA with MCG Analogs (50 μM)—17b readout, 2G12 and DMSO normalized.
To identify molecules able to expose vulnerable Env epitopes, a cell-based ELISA (CBE) assay was adapted, capable of measuring conformational changes of membrane-bound trimeric Env as described in Veillette, 2014, J. Vis. Exp. doi:10.3791/51995:51995; Haim, 2011, PLoS Pathog 7:e1002101, into a high-throughput screening (HTS) platform (FIG. 10A). Briefly, the cytoplasmic-tail deleted HIV-1JR-FL Tier-2/3 Env was expressed on the surface of HOS cells in a 384-well-plate format. The cytoplasmic tail of Env was deleted to enhance Env expression at the cell surface and therefore enhance the sensitivity of the CBE assay. See, Veilette and Haim, 2009, PLoS Pathog 5:e100036. Small molecules or, as a positive control, soluble (sCD4) were added to expose the HIV-1JR-FL EnvΔCT epitope that can be recognized by the CD4i antibody 17b. See, Wyatt, 1995, J. Virol. 69:5723-5733; Rizzuto, 1998, Science 280:1949-1953.
17b binding was detected by a horseradish peroxidase-conjugated (HRP) second antibody, and HRP enzyme activity was measured by Western Lightning oxidizing and luminal reagents. 17b binding in the presence of sCD4 was set as the control (FIG. 10B, blue dots), small molecules that enhanced 17b binding above 25% of the one induced by sCD4 were retested in quadruplicate and only one molecule (UM0059920) was deemed a true positive (FIG. 10B, red dots). […]

[2] = test system: CH58TF infected primary CD4+ T-cells; test: HIV+ patient sera/plasma recognition of CH58TF infected primary CD4+ T-cells (flow cytometry cell-surface staining); assay type: cell-based, HIV-1; conditions: for fold induction at 50 µM: Human immunodeficiency virus 1, T-cell, read-out: Fold Over DMSO (patient sera, n = 3)
Description: (§1) Cell-surface staining of primary CD4+ T cells from healthy HIV uninfected individuals or CEM-NKr cells is performed, as described in Prevost, “Influence of the Envelope gp120 Phe 43 Cavity on HIV-1 Sensitivity to Antibody-Dependent Cell-Mediated Cytotoxicity Responses,” 2017, J. Virol 91; Richard, “CD4 mimetics sensitize HIV-1-infected cells to ADCC,” 2015, Proc. Natl. Acad. Sci. USA, 112:E2687-2694; Richard, “Small CD4 Mimetics Prevent HIV-1 Uninfected Bystander CD4+ T Cell Killing Mediated by Antibody-dependent Cell-mediated Cytotoxicity,” 2016, EBioMedicine 3:122-134; Veillette, “The HIV-1 gp120 CD4-Bound Conformation Is Preferentially Targeted by Antibody-Dependent Cellular Cytotoxicity-Mediating Antibodies in Sera from HIV-1-Infected Individuals,” 2015, J. Virol., 89:545-551; Veillette, “Interaction with cellular CD4 exposes HIV-1 envelope epitopes targeted by antibody-dependent cell-mediated cytotoxicity,” 2014, J. Virol., 88:2633-2644; Richard, “Uninfected Bystander Cells Impact the Measurement of HIV-Specific Antibody-Dependent Cellular Cytotoxicity Responses,” 2018, MBio. 9(2): e00358-18; Richard, “BST-2 Expression Modulates Small CD4-Mimetic Sensitization of HIV-1-Infected Cells to Antibody-Dependent Cellular Cytotoxicity,” 2017, J. Virol. 91(11):e00219-17. Binding of HIV-1 infected cells by HIV+ sera (1:1000 dilution) or anti-Env Abs (such as 17b) is performed […] in vitro infection at 37° C. in presence of different concentrations of the MCG analogs or with equivalent volume of vehicle (DMSO). Cells infected with HIV-1 primary isolates are stained intracellularly for HIV-1 p24 using the Cytofix/Cytoperm Fixation/Permeabilization Kit (BD Biosciences, Mississauga, ON, Canada) and then fluorescent anti-p24 mAb (PE-anti-p24, clone KC57; Beckman Coulter/Immunotech, Hialeah, FL) (1:100 final concentration). The percentage of infected cells (p24^+ or GFP+ cells) is determined by gating the living cell population based on the viability dye staining. Samples are analyzed on an LSRII cytometer (BD Biosciences, Mississauga, ON, Canada) and data analysis is performed using FlowJo vX0.7 (Tree Star, Ashland, OR, USA).
HIV+ Patient Sera (n=3) Recognition of CH58TF Infected Primary CD4+ T-Cells
Staining with patient sera and 50 μM of compounds given as a fold change over DMSO (vehicle).
(§2) Briefly, Primary CD4 T cells isolated from PBMC were infected with HIV-1CH58TF for 48 hours. For cell surface staining, 5 μg/ml 17b (FIG. 15A) or 1:1000 diluted HIV+ plasma (n=15) (FIG. 15B) were used in the presence of the different MCG analogs (50 μM), (+)-BNM-III-170 or with an equivalent volume of vehicle (DMSO). An Alexa Fluor 647-conjugated anti-human IgG secondary Ab was then used for fluorescent labeling. For ADCC (FIG. 15C), infected cells were used as target cells in a FACS-based ADCC assay that measures the killing of infected (p24+ cells). See, Madani, 2016, J. Virol., 90:5031-5046. The assay determines susceptibility to ADCC mediated by a 1/1,000 dilution of plasma from 15 HIV-1-infected individuals in the presence of the different MCG analogs (50 μM), (+)-BNM-III-170 (50 μM) or with an equivalent volume of vehicle (DMSO). Correlation between cell-surface staining with HIV+ plasma and ADCC was calculated using the Spearman rank correlation (FIG. 15D).

[3] = test system: CH58TF infected primary CD4+ T-cells; test: Recognition of HIV-1 infected cells by 17b (flow cytometry cell-surface staining); assay type: cell-based; conditions: for fold induction at 50 µM: Human immunodeficiency virus 1, T-cell, read-out: Fold Over DMSO (17b, n = 1)
Description: as §1, §2

Row | Structure (SMILES) | Solubility (in PBS) (Solubility in PBS) | Fold over BNM-III-170 - 17b binding (±0.05) [1] [fold] | fold induction at 50 µM [2] | fold induction at 50 µM [3] | Fold Over DMSO (patient sera, n = 3) ([2]; 50 μM of compounds, staining with HIV+ patient sera, CH58TF infected primary CD4+ T-cells) [fold] | Fold Over DMSO (17b, n = 1) ([3]; 50 μM of compounds, 17b staining) [fold]
1 | CS(=O)(=O)N1CCC[C@H](C(=O)Nc2ccc(C(F)(F)F)cc2)C1 [(S)-MCG-III-027-A04] | Yes | 0.17 | 1.4 | 1.07 | – | –
2 | CS(=O)(=O)N1CCC[C@H](C(=O)Nc2ccc(F)c(Cl)c2)C1 [(S)-MCG-III-085-A02] | Yes | 0.22 | 1.13 | 2.15 | – | –
3 | CS(=O)(=O)N1CCC[C@H](C(=O)Nc2ccc(Cl)c(Cl)c2)C1 [(S)-MCG-III-085-A03] | Yes | 0.19 | 1.46 | 3.34 | – | –
4 | CS(=O)(=O)N1CCC[C@H](C(=O)Nc2ccc(F)c(F)c2)C1 [(S)-MCG-III-085-A04] | Yes | 0.10 | 1.31 | 3 | – | –
5 | CS(=O)(=O)N1CCC[C@H](C(=O)Nc2ccc(Cl)c(Br)c2)C1 [(S)-MCG-III-085-A05] | Yes | 0.16 | 1.11 | 2.15 | – | –
6 | CS(=O)(=O)N1CCC[C@H](C(=O)Nc2ccc(Br)c(Cl)c2)C1 [(S)-MCG-III-085-A06] | Yes | 0.14 | 1.61 | 3.3 | – | –
7 | CCS(=O)(=O)N1CCC[C@H](C(=O)Nc2ccc(F)c(Cl)c2)C1 [(S)-MCG-III-085-C02] | Yes | 0.20 | 1.19 | 2.15 | – | –
8 | CCS(=O)(=O)N1CCC[C@H](C(=O)Nc2ccc(Cl)c(Cl)c2)C1 [(S)-MCG-III-085-C03] | Yes | 0.25 | 1.65 | 3.83 | – | –
9 | O=C(Nc1ccc(Cl)c(F)c1)[C@H]1CCCN(S(=O)(=O)C(F)(F)F)C1 [(S)-MCG-III-132] | Yes | 0.27 | 1.58 | – | – | –
10 | CS(=O)(=O)N1CCC(C(=O)Nc2ccc(Cl)c(F)c2)C1 (centres unmarked) [MCG-III-157-A01] | Yes | 0.36 | 1.85 | – | – | –
11 | CCS(=O)(=O)N1CCC(C(=O)Nc2ccc(Cl)c(F)c2)C1 (centres unmarked) [MCG-III-157-A02] | Yes | 0.27 | 1.64 | – | – | –
12 | Cn1cnc(S(=O)(=O)N2CCC(C(=O)Nc3ccc(Cl)c(F)c3)C2)c1 (centres unmarked) [MCG-III-157-A04] | Yes | 0.34 | 1.28 | – | – | –
13 | CS(=O)(=O)N1CCCC(C(=O)Nc2ccc(Cl)c(F)c2)C1 (centres unmarked) [MCG-III-157-B01] | Yes | 0.42 | 1.48 | – | – | –
14 | CCS(=O)(=O)N1CCCC(NC(=O)c2ccc(Cl)c(F)c2)C1 (centres unmarked) [MCG-III-157-C02] | Yes | 0.07 | 1.05 | – | – | –
15 | Cn1cnc(S(=O)(=O)N2CCCC(NC(=O)c3ccc(Cl)c(F)c3)C2)c1 (centres unmarked) [MCG-III-157-C04] | Yes | 0.04 | 0.897 | – | – | –
16 | O=C(Nc1ccc(Cl)c(F)c1)C1CNCCO1 (centres unmarked) [MCG-III-196] | Yes | – | – | – | 1.499 | 2.595
17 | CCN1CC(C(=O)Nc2ccc(Cl)c(F)c2)Cc2ccccc21 (centres unmarked) [MCG-III-201] | Yes | – | 0.989 | 1.39 | – | –
18 | O=C(Nc1ccc(Cl)c(F)c1)C1CNc2ccccc2C1 (centres unmarked) [MCG-III-209] | Yes | – | 1.82 | 3.23 | – | –
19 | CCS(=O)(=O)N1CC(C(=O)Nc2ccc(Cl)c(F)c2)Cc2ccccc21 (centres unmarked) [MCG-III-214-A02] | Yes** | – | 3.25 | 5.16 | – | –
